Experimental data reported in US8685999B2, “Beta carboline sulphonylurea derivatives as EP4 receptor antagonists” (Merck Sharp & Dohme Corp., priority 2008, dated 2014).
Where two headings read alike, the source gives them in different places.

Target: T1, EP4 (Homo sapiens, UniProt P35408)
T1 construct: expressed in transfected cells; membranes prepared by differential centrifugation
Test: Prostanoid receptor binding assay (radioligand displacement binding assay)
Method: Prostanoid receptor cDNAs corresponding to full length coding sequences are subcloned into the appropriate sites of mammalian expression vectors and transfected into HEK 293(ebna) cells. HEK 293(ebna) cells expressing the individual cDNAs are grown under selection and individual colonies are isolated after 2-3 weeks of growth using the cloning ring method and subsequently expanded into clonal cell lines.
Transfected HEK 293(ebna) cells are maintained in culture, harvested and membranes are prepared by differential centrifugation, following lysis of the cells in the presence of protease inhibitors, for use in receptor binding assays. Prostanoid receptor binding assays (for DP1, DP2 (CRTH2), EP1, EP2, EP3-III, EP4, FP, IP, and TP) are performed in 10 mM MES/KOH (pH 6.0) (EPs, FP and TP) or 10 mM HEPES/KOH (pH 7.4) (DPs and IP), containing 1 mM EDTA, 2.5-30 mM divalent cation and the appropriate radio-ligand. Synthetic compounds are added in DMSO which is kept constant at 1% (v/v) in all incubations. The reaction is initiated by addition of membrane protein. Non-specific binding is determined in the presence of 10 μM of the corresponding non-radioactive prostanoid. Incubations are conducted for 60-120 min at room temperature or 30° C. and terminated by rapid filtration. Specific binding is calculated by subtracting non specific binding from total binding. The residual specific binding at each ligand concentration is calculated and expressed as a function of ligand concentration in order to construct sigmoidal concentration-response curves. The binding affinity of the compounds is determined by calculating the equilibrium inhibition constant (Ki) from the equation Ki=InPt/1+[radio-ligand]/Kd where Kd is the equilibrium dissociation constant for the radio-ligand:receptor interaction and InPt is the inflection point of the dose-response curves.
Abramovitz, M. et al., Biochem, Biophys. Acta, 2000, 1483, pp. 285.

[1] = column marked X when IC50 between 1 and 5, read-out: IC50 (nm) 1 < X < 5
[2] = radioligand displacement binding assay, read-out: IC50
[3] = column marked X when IC50 < 1, read-out: IC50 (nm) X < 1
[4] = column marked X when IC50 > 5, read-out: IC50 (nm) X > 5

T1 sequence (P35408 whole entry): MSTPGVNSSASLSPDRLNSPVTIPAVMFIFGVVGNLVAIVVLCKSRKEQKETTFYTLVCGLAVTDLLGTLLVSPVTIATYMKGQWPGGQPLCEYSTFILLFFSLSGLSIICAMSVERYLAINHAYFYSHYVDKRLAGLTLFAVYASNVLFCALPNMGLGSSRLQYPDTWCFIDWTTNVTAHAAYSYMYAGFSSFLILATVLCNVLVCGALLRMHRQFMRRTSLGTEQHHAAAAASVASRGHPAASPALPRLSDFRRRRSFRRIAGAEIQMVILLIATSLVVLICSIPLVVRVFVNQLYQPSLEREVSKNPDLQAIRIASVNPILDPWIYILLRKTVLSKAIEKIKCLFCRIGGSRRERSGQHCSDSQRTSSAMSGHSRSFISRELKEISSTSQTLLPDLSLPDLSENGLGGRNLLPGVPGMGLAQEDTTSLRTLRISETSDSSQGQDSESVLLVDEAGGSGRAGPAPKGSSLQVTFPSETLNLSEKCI

SMILES | IC50 [3] | also measured
CN1CCc2c(n(-c3ccc(CC4(NC(=O)NS(=O)(=O)c5ccc(Cl)cc5)CC4)cc3)c3ccc(-c4ccccc4)cc23)C1=O [Example 1-1, 4-chloro-N-[({1-[4-(2-methyl-1-oxo-6-phenyl-1,2,3,4-tetrahydro-9H-beta-carbolin-9-yl)benzyl]cyclopropyl}amino)carbonyl]benzenesulfonamide] |  | IC50 [1]: 1 to 5 nM; IC50 [2]: 1 to 5 nM
Cc1ccc(S(=O)(=O)NC(=O)NCCc2ccc(-n3c4c(c5c(C)cc(C)cc53)CCN(C)C4=O)cc2)cc1 [Example 1-2, 4-methyl-N-[({2-[4-(2,5,7-trimethyl-1-oxo-1,2,3,4-tetrahydro-9H-beta-carbolin-9-yl)phenyl]ethyl}amino)carbonyl]benzenesulfonamide] | < 1 nM | 
CN1CCc2c(n(-c3ccc(CCNC(=O)NS(=O)(=O)c4ccc(Cl)cc4)cc3)c3cc(Cl)cc(Cl)c23)C1=O [Example 1-3, 4-chloro-N-[({2-[4-(5,7-dichloro-2-methyl-1-oxo-1,2,3,4-tetrahydro-9H-beta-carbolin-9-yl)phenyl]ethyl}amino)carbonyl]benzenesulfonamide] | < 1 nM | 
CN1CCc2c(n(-c3ccc(CCNC(=O)NS(=O)(=O)c4ccc(Cl)cc4)cc3)c3ccc(Cl)cc23)C1=O [Example 1-4, 4-chloro-N-[({2-[4-(6-chloro-2-methyl-1-oxo-1,2,3,4-tetrahydro-9H-beta-carbolin-9-yl)phenyl]ethyl}amino)carbonyl]benzenesulfonamide] | < 1 nM | 
CN1CCc2c(n(-c3ccc(CCNC(=O)NS(=O)(=O)c4ccc(Cl)cc4)cc3)c3ccc(Br)cc23)C1=O [Example 1-5, N-[({2-[4-(6-bromo-2-methyl-1-oxo-1,2,3,4-tetrahydro-9H-beta-carbolin-9-yl)phenyl]ethyl}amino)carbonyl]-4-chlorobenzenesulfonamide] | < 1 nM | 
CCN1CCc2c(n(-c3ccc(CCNC(=O)NS(=O)(=O)c4ccc(Cl)cc4)cc3)c3cc(Cl)cc(Cl)c23)C1=O [Example 1-6, 4-chloro-N-[({2-[4-(5,7-dichloro-2-ethyl-1-oxo-1,2,3,4-tetrahydro-9H-beta-carbolin-9-yl)phenyl]ethyl}amino)carbonyl]benzenesulfonamide] | < 1 nM | 
O=C(NCCc1ccc(-n2c3c(c4c(Cl)cc(Cl)cc42)CCN(CC2CC2)C3=O)cc1)NS(=O)(=O)c1ccc(Cl)cc1 [Example 1-7, 4-chloro-N-{[(2-{4-[5,7-dichloro-2-(cyclopropylmethyl)-1-oxo-1,2,3,4-tetrahydro-9H-beta-carbolin-9-yl]phenyl}ethyl)amino]carbonyl}benzenesulfonamide] |  | IC50 [1]: 1 to 5 nM; IC50 [2]: 1 to 5 nM
CN1CCc2c(n(-c3ccc(CCNC(=O)NS(=O)(=O)c4ccc(Cl)cc4)cc3)c3ccc(-c4ccccc4)cc23)C1=O [Example 1-8, 4-chloro-N-[({2-[4-(2-methyl-1-oxo-6-phenyl-1,2,3,4-tetrahydro-9H-beta-carbolin-9-yl)phenyl]ethyl}amino)carbonyl]benzenesulfonamide] | < 1 nM | 
O=C(NCCc1ccc(-n2c3c(c4c(Cl)cc(Cl)cc42)CCN(c2ccccc2)C3=O)cc1)NS(=O)(=O)c1ccc(Cl)cc1 [Example 1-9, 4-chloro-N-[({2-[4-(5,7-dichloro-1-oxo-2-phenyl-1,2,3,4-tetrahydro-9H-beta-carbolin-9-yl)phenyl]ethyl}amino)carbonyl]benzenesulfonamide] |  | IC50 [4]: > 5 nM; IC50 [2]: > 5 nM
CN1CCc2c(n(-c3ccc(CCNC(=O)NS(=O)(=O)c4ccc(Cl)cc4)cc3)c3cc(Cl)c(Cl)cc23)C1=O [Example 1-10, 4-chloro-N-[({2-[4-(6,7-dichloro-2-methyl-1-oxo-1,2,3,4-tetrahydro-9H-beta-carbolin-9-yl)phenyl]ethyl}amino)carbonyl]benzenesulfonamide] | < 1 nM | 
CN1CCc2c(n(-c3ccc(CCNC(=O)NS(=O)(=O)c4ccc(Cl)cc4)cc3)c3ccc(Cl)c(Cl)c23)C1=O [Example 1-11, 4-chloro-N-[({2-[4-(5,6-dichloro-2-methyl-1-oxo-1,2,3,4-tetrahydro-9H-beta-carbolin-9-yl)phenyl]ethyl}amino)carbonyl]benzenesulfonamide] | < 1 nM | 
CN1CCc2c(n(-c3ccc(CCNC(=O)NS(=O)(=O)c4ccc(Cl)cc4)cc3)c3cc(Cl)ccc23)C1=O [Example 1-12, 4-chloro-N-[({2-[4-(7-chloro-2-methyl-1-oxo-1,2,3,4-tetrahydro-9H-beta-carbolin-9-yl)phenyl]ethyl}amino)carbonyl]benzenesulfonamide] | < 1 nM | 
CN1CCc2c(n(-c3ccc(CCNC(=O)NS(=O)(=O)c4ccc(Cl)cc4)cc3)c3cccc(Cl)c23)C1=O [Example 1-13, 4-chloro-N-[({2-[4-(5-chloro-2-methyl-1-oxo-1,2,3,4-tetrahydro-9H-beta-carbolin-9-yl)phenyl]ethyl}amino)carbonyl]benzenesulfonamide] | < 1 nM | 
CN1CCc2c(n(-c3ccc(CCNC(=O)NS(=O)(=O)c4ccc(Cl)cc4)cc3)c3cccc(Br)c23)C1=O [Example 1-14, N-[({2-[4-(5-bromo-2-methyl-1-oxo-1,2,3,4-tetrahydro-9H-beta-carbolin-9-yl)phenyl]ethyl}amino)carbonyl]-4-chlorobenzenesulfonamide] | < 1 nM | 
CN1CCc2c(n(-c3ccc(CCNC(=O)NS(=O)(=O)c4ccc(Cl)cc4)cc3)c3cc(Br)ccc23)C1=O [Example 1-15, N-[({2-[4-(7-bromo-2-methyl-1-oxo-1,2,3,4-tetrahydro-9H-beta-carbolin-9-yl)phenyl]ethyl}amino)carbonyl]-4-chlorobenzenesulfonamide] | < 1 nM | 
CN1CCc2c(n(-c3ccc(CC4(NC(=O)NS(=O)(=O)c5ccc(Cl)cc5)CC4)cc3)c3ccc(Br)cc23)C1=O [Example 1-16, N-[({1-[4-(6-bromo-2-methyl-1-oxo-1,2,3,4-tetrahydro-9H-beta-carbolin-9-yl)benzyl]cyclopropyl}amino)carbonyl]-4-chlorobenzenesulfonamide] | < 1 nM | 
CN1CCc2c(n(-c3ccc(CCNC(=O)NS(=O)(=O)c4ccc(Cl)cc4)cc3)c3cccc(-c4ccccc4)c23)C1=O [Example 1-17, 4-chloro-N-[({2-[4-(2-methyl-1-oxo-5-phenyl-1,2,3,4-tetrahydro-9H-beta-carbolin-9-yl)phenyl]ethyl}amino)carbonyl]benzenesulfonamide] | < 1 nM | 
CN1CCc2c(n(-c3ccc(CCNC(=O)NS(=O)(=O)c4ccc(Cl)cc4)cc3)c3cc(-c4ccccc4)ccc23)C1=O [Example 1-18, 4-chloro-N-[({2-[4-(2-methyl-1-oxo-7-phenyl-1,2,3,4-tetrahydro-9H-beta-carbolin-9-yl)phenyl]ethyl}amino)carbonyl]benzenesulfonamide] |  | IC50 [4]: > 5 nM; IC50 [2]: > 5 nM
CN1CCc2c(n(-c3ccc(CCNC(=O)NS(=O)(=O)c4ccc(Cl)cc4)cc3)c3ccc(-c4ccc(F)cc4)cc23)C1=O [Example 1-19, 4-chloro-N-{[(2-{4-[6-(4-fluorophenyl)-2-methyl-1-oxo-1,2,3,4-tetrahydro-9H-beta-carbolin-9-yl]phenyl}ethyl)amino]carbonyl}benzenesulfonamide] | < 1 nM | 
CN1CCc2c(n(-c3ccc(CCNC(=O)NS(=O)(=O)c4ccc(Cl)cc4)cc3)c3c(Cl)cccc23)C1=O [Example 1-20, 4-chloro-N-[({2-[4-(8-chloro-2-methyl-1-oxo-1,2,3,4-tetrahydro-9H-beta-carbolin-9-yl)phenyl]ethyl}amino)carbonyl]benzenesulfonamide] |  | IC50 [4]: > 5 nM; IC50 [2]: > 5 nM
